Experimental data reported in ChEMBL document CHEMBL1133280, “Discovery and synthesis of a potent sulfonamide ET(B) selective antagonist” (Bioorg Med Chem Lett, 2000).

Assays:
[1] = biological target: T1, Endothelin-1 receptor (Rattus norvegicus, UniProt P26684); experiment: Displacement of [125 I] ET-1 from rat aortic smooth muscle A7r5 cells transfected with Endothelin A receptor; assay type: cell-based
T1 sequence (P26684 whole entry): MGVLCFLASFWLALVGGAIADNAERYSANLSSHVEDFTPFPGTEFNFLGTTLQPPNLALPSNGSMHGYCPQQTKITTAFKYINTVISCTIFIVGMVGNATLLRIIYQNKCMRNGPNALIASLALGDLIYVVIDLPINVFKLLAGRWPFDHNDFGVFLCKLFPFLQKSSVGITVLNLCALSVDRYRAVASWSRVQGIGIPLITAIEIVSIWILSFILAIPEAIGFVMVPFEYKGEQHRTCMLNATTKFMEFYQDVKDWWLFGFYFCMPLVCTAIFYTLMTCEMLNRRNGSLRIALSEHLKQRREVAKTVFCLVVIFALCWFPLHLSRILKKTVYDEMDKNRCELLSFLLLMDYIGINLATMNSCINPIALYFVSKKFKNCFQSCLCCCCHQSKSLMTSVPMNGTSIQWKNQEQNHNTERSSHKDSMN

[2] = Ratio of IC50 of rat ETA receptor to that of porcine ETB receptor
[3] = biological target: T2, Endothelin receptor type B (Sus scrofa, UniProt P35463); experiment: Binding affinity towards displacement of [125 I] ET-3 from COS-7 cells transfected with porcine Endothelin B receptor; assay type: cell-based
T2 sequence (P35463 whole entry): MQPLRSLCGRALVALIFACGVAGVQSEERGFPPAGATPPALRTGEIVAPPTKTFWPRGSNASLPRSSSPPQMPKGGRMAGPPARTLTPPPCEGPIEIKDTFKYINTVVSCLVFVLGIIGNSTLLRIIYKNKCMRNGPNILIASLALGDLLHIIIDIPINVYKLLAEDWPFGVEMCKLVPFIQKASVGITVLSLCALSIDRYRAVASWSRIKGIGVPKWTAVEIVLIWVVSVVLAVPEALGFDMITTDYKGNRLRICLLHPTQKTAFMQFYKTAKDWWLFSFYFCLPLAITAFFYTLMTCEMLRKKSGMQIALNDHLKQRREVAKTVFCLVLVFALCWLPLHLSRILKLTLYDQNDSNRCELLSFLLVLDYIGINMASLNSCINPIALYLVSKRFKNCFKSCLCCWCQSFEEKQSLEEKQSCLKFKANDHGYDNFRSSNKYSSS

SMILES | IC50 [1] | Ratio [2] | IC50 [3]
COc1cccc(Sc2c(NS(=O)(=O)c3ccc(C(C)(C)C)cc3)noc2CCCCO)c1 | 0.63 µM | 2.6 | 0.24 µM
COc1cccc(Sc2c(NS(=O)(=O)c3ccc(C(C)(C)C)cc3)noc2CCCCC=O)c1 | 1.4 µM | 70 | 0.02 µM
Cc1onc(NS(=O)(=O)c2ccc(C(C)(C)C)cc2)c1C | 28 µM |  | 
CCc1onc(NS(=O)(=O)c2ccc(C(C)(C)C)cc2)c1Sc1cccc(OC)c1 | 0.8 µM | 0.3 | 2.8 µM
COc1cccc(Sc2c(NS(=O)(=O)c3ccc(C(C)(C)C)cc3)noc2CCO)c1 | 0.77 µM | 1.8 | 0.43 µM
COc1cccc(Sc2c(NS(=O)(=O)c3ccc(C(C)(C)C)cc3)noc2CCCC#N)c1 | 1.3 µM | 2.5 | 0.52 µM
COc1cccc(Sc2c(NS(=O)(=O)c3ccc(C(C)(C)C)cc3)noc2CCC/C=N/O)c1 | 1.5 µM | 18 | 0.085 µM
COc1cccc(Sc2c(NS(=O)(=O)c3ccc(C(C)(C)C)cc3)noc2CCC=O)c1 | 0.38 µM | 0.8 | 0.5 µM
Cc1onc(NS(=O)(=O)c2ccc(C(C)(C)C)cc2)c1I | > 100 µM |  | 30 µM
Cc1nsc(NS(=O)(=O)c2ccc(C(C)(C)C)cc2)c1C | > 500 µM |  | 
CSc1c(NS(=O)(=O)c2ccc(C(C)(C)C)cc2)noc1C | > 100 µM |  | 35 µM
COC(=O)CCCc1onc(NS(=O)(=O)c2ccc(C(C)(C)C)cc2)c1Sc1cccc(OC)c1 | 0.4 µM | 1.3 | 0.31 µM
COc1cccc(Sc2c(NS(=O)(=O)c3ccc(C(C)(C)C)cc3)noc2CCCC(N)=O)c1 | 6.3 µM | 26 | 0.24 µM
CCc1c(NS(=O)(=O)c2ccc(N)cc2)noc1C | 3.4 µM |  | 
COc1cccc(Sc2c(NS(=O)(=O)c3ccc(C(C)(C)C)cc3)noc2CCCC=O)c1 | 1.7 µM | 850 | 0.002 µM
COc1cccc(Sc2c(NS(=O)(=O)c3ccc(C(C)(C)C)cc3)noc2CCCC(=O)O)c1 |  | 8.6 | 0.5 µM
COc1cccc(Sc2c(NS(=O)(=O)c3ccc(C(C)(C)C)cc3)noc2C)c1 | 0.53 µM | 1.8 | 0.3 µM
Cc1onc(NS(=O)(=O)c2ccc(N)cc2)c1Cc1ccccc1 | 71 µM |  | 
COc1cccc(Sc2c(NS(=O)(=O)c3ccc(C(C)(C)C)cc3)noc2CCCO)c1 | 0.32 µM | 2.3 | 0.14 µM
Cc1snc(NS(=O)(=O)c2ccc(N)cc2)c1C | 28 µM |  | 
COc1cccc(Sc2c(NS(=O)(=O)c3ccc(C(C)(C)C)cc3)noc2CO)c1 | 6.2 µM | 11 | 0.56 µM
Cc1onc(NS(=O)(=O)c2ccc(N)cc2)c1Cl | 3.5 µM |  | 
Cc1onc(NS(=O)(=O)c2ccc(N)cc2)c1I | 11 µM |  | > 1000 µM
COc1cccc(Sc2c(NS(=O)(=O)c3ccc(C(C)(C)C)cc3)noc2CCCC(C)=O)c1 | 1.3 µM | 3.3 | 0.4 µM
